Measured values published in PubChem BioAssay AID1963853 (Molecular Pharmacology Branch, DTP, NCI, 2024).

Tested on: 266295-075-R-J1-PDC spheroid viability
Assay: Anticancer human tumor 266295-075-R-J1-PDC patient-derived head and neck squamous carcinoma cell line growth inhibition [POLQ]
Settings: spheroids with HUVEC and MSC; for IC50: curve of first compound; for viability, T/C: stronger effect = lower value
Procedure, shortened: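 PDC + HUVEC + MSC complex spheroids; POLQ inhibitors ± partner drugs; top conc. at/near clinical Cmax, else 10 microM (SN-38 1 microM), half-log dilutions; 37 degrees C, 5% CO2.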

[1] = second compound 0.0316 µM, first compound 0.0316 µM
[2] = second compound 0.0316 µM, first compound 0.1 µM
[3] = second compound 0.0316 µM, first compound 0.316 µM
[4] = second compound 0.0316 µM, first compound 1 µM
[5] = second compound 0.0316 µM, first compound 3.16 µM
[6] = second compound 0.0316 µM, first compound 10 µM
[7] = second compound 0.1 µM, first compound 0.0316 µM
[8] = second compound 0.1 µM, first compound 0.1 µM
[9] = second compound 0.1 µM, first compound 0.316 µM
[10] = second compound 0.1 µM, first compound 1 µM
[11] = second compound 0.1 µM, first compound 3.16 µM
[12] = second compound 0.1 µM, first compound 10 µM
[13] = second compound 0.316 µM, first compound 0.0316 µM
[14] = second compound 0.316 µM, first compound 0.1 µM
[15] = second compound 0.316 µM, first compound 0.316 µM
[16] = second compound 0.316 µM, first compound 1 µM
[17] = second compound 0.316 µM, first compound 3.16 µM
[18] = second compound 0.316 µM, first compound 10 µM
[19] = second compound 1 µM, first compound 0.0316 µM
[20] = second compound 1 µM, first compound 0.1 µM
[21] = second compound 1 µM, first compound 0.316 µM
[22] = second compound 1 µM, first compound 1 µM
[23] = second compound 1 µM, first compound 3.16 µM
[24] = second compound 1 µM, first compound 10 µM
[25] = second compound 3.16 µM, first compound 0.0316 µM
[26] = second compound 3.16 µM, first compound 0.1 µM
[27] = second compound 3.16 µM, first compound 0.316 µM
[28] = second compound 3.16 µM, first compound 1 µM
[29] = second compound 3.16 µM, first compound 3.16 µM
[30] = second compound 3.16 µM, first compound 10 µM
[31] = second compound 10 µM, first compound 0.0316 µM
[32] = second compound 10 µM, first compound 0.1 µM
[33] = second compound 10 µM, first compound 0.316 µM
[34] = second compound 10 µM, first compound 1 µM
[35] = second compound 10 µM, first compound 3.16 µM
[36] = second compound 10 µM, first compound 10 µM
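Further: spheroids exposed to compounds for seven days before readout.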

SMILES: C#Cc1c(F)ccc2cc(O)cc(-c3ncc4c(N5CC6CCC(C5)N6)nc(OCC56CCCN5CC(F)C6)nc4c3F)c12 (stereo not drawn) + Cc1cccc(N(C)C(=O)C2C(O)CCN2c2nc(C)cc(C(F)(F)F)c2C#N)c1
- IC50 (second compound 0.0316 µM): > 10 µM
- IC50 (second compound 0.1 µM): > 10 µM
- IC50 (second compound 0.316 µM): > 10 µM
- IC50 (second compound 1 µM): > 10 µM
- IC50 (second compound 3.16 µM): 6.48 µM
- IC50 (second compound 10 µM): > 10 µM
- viability, T/C [1]: 91.9%
- viability, T/C [2]: 76.7%
- viability, T/C [3]: 82.8%
- viability, T/C [4]: 66.8%
- viability, T/C [5]: 66.7%
- viability, T/C [6]: 57%
- viability, T/C [7]: 111%
- viability, T/C [8]: 94.1%
- viability, T/C [9]: 70%
- viability, T/C [10]: 62.8%
- viability, T/C [11]: 59.6%
- viability, T/C [12]: 55.7%
- viability, T/C [13]: 102%
- viability, T/C [14]: 87.4%
- viability, T/C [15]: 78.6%
- viability, T/C [16]: 70.6%
- viability, T/C [17]: 70.9%
- viability, T/C [18]: 58.8%
- viability, T/C [19]: 90.3%
- viability, T/C [20]: 93.1%
- viability, T/C [21]: 75.5%
- viability, T/C [22]: 67.3%
- viability, T/C [23]: 67.8%
- viability, T/C [24]: 57.8%
- viability, T/C [25]: 154%
- viability, T/C [26]: 83.7%
- viability, T/C [27]: 76.9%
- viability, T/C [28]: 65.1%
- viability, T/C [29]: 66.6%
- viability, T/C [30]: 55.6%
- viability, T/C [31]: 84.5%
- viability, T/C [32]: 91.9%
- viability, T/C [33]: 82.9%
- viability, T/C [34]: 63.2%
- viability, T/C [35]: 65.7%
- viability, T/C [36]: 85%

SMILES: CCc1cc2c(N3CCc4c(cc(Cn5ccnc5)cc4-c4cn(C)nc4C(F)(F)F)C3=O)cc(C)nc2c(OC)n1 + Cc1cccc(N(C)C(=O)C2C(O)CCN2c2nc(C)cc(C(F)(F)F)c2C#N)c1
- IC50 (second compound 0.0316 µM): > 10 µM
- IC50 (second compound 0.1 µM): > 10 µM
- IC50 (second compound 0.316 µM): > 10 µM
- IC50 (second compound 1 µM): > 10 µM
- IC50 (second compound 3.16 µM): > 10 µM
- IC50 (second compound 10 µM): > 10 µM
- viability, T/C [1]: 72.8%
- viability, T/C [2]: 89%
- viability, T/C [3]: 81.6%
- viability, T/C [4]: 111%
- viability, T/C [5]: 130%
- viability, T/C [6]: 120%
- viability, T/C [7]: 102%
- viability, T/C [8]: 90.4%
- viability, T/C [9]: 101%
- viability, T/C [10]: 110%
- viability, T/C [11]: 89.3%
- viability, T/C [12]: 114%
- viability, T/C [13]: 97.7%
- viability, T/C [14]: 105%
- viability, T/C [15]: 102%
- viability, T/C [16]: 122%
- viability, T/C [17]: 131%
- viability, T/C [18]: 123%
- viability, T/C [19]: 87.1%
- viability, T/C [20]: 88.4%
- viability, T/C [21]: 102%
- viability, T/C [22]: 98.5%
- viability, T/C [23]: 135%
- viability, T/C [24]: 121%
- viability, T/C [25]: 83.7%
- viability, T/C [26]: 102%
- viability, T/C [27]: 117%
- viability, T/C [28]: 109%
- viability, T/C [29]: 138%
- viability, T/C [30]: 137%
- viability, T/C [31]: 101%
- viability, T/C [32]: 93.2%
- viability, T/C [33]: 111%
- viability, T/C [34]: 127%
- viability, T/C [35]: 122%
- viability, T/C [36]: 145%

SMILES: O=C(Nc1ccc(O)c(NS(=O)(=O)c2ccc(F)cc2)c1)c1ccc(-c2ccccc2)cc1 + Cc1cccc(N(C)C(=O)C2C(O)CCN2c2nc(C)cc(C(F)(F)F)c2C#N)c1
- IC50 (second compound 0.0316 µM): > 10 µM
- IC50 (second compound 0.1 µM): > 10 µM
- IC50 (second compound 0.316 µM): > 10 µM
- IC50 (second compound 1 µM): > 10 µM
- IC50 (second compound 3.16 µM): > 10 µM
- IC50 (second compound 10 µM): > 10 µM
- viability, T/C [1]: 96.1%
- viability, T/C [2]: 104%
- viability, T/C [3]: 125%
- viability, T/C [4]: 139%
- viability, T/C [5]: 144%
- viability, T/C [6]: 103%
- viability, T/C [7]: 118%
- viability, T/C [8]: 104%
- viability, T/C [9]: 124%
- viability, T/C [10]: 110%
- viability, T/C [11]: 123%
- viability, T/C [12]: 97.7%
- viability, T/C [13]: 107%
- viability, T/C [14]: 87.6%
- viability, T/C [15]: 76.6%
- viability, T/C [16]: 95.2%
- viability, T/C [17]: 146%
- viability, T/C [18]: 88.3%
- viability, T/C [19]: 102%
- viability, T/C [20]: 97%
- viability, T/C [21]: 103%
- viability, T/C [22]: 129%
- viability, T/C [23]: 114%
- viability, T/C [24]: 85.5%
- viability, T/C [25]: 136%
- viability, T/C [26]: 94.5%
- viability, T/C [27]: 110%
- viability, T/C [28]: 136%
- viability, T/C [29]: 127%
- viability, T/C [30]: 103%
- viability, T/C [31]: 108%
- viability, T/C [32]: 113%
- viability, T/C [33]: 113%
- viability, T/C [34]: 108%
- viability, T/C [35]: 142%
- viability, T/C [36]: 97.2%

SMILES: COc1cccc2c1C(=O)c1c(O)c3c(c(O)c1C2=O)CC(O)(C(=O)CO)CC3OC1CC(N)C(O)C(C)O1 (stereo not drawn) + Nc1ccc(C#CCN(C(=O)Cc2ncc(C(F)(F)F)cc2C(F)(F)F)c2ccc(F)cc2)nn1
- IC50 (second compound 0.0316 µM): 4.42 µM
- IC50 (second compound 0.1 µM): 3.75 µM
- IC50 (second compound 0.316 µM): 4.37 µM
- IC50 (second compound 1 µM): 4.41 µM
- IC50 (second compound 3.16 µM): 3.47 µM
- IC50 (second compound 10 µM): 2.44 µM
- viability, T/C [1]: 93%
- viability, T/C [2]: 106%
- viability, T/C [3]: 74.4%
- viability, T/C [4]: 83.8%
- viability, T/C [5]: 72.4%
- viability, T/C [6]: 2.33%
- viability, T/C [7]: 126%
- viability, T/C [8]: 103%
- viability, T/C [9]: 89.2%
- viability, T/C [10]: 80.5%
- viability, T/C [11]: 71.8%
- viability, T/C [12]: 2.03%
- viability, T/C [13]: 119%
- viability, T/C [14]: 106%
- viability, T/C [15]: 74.2%
- viability, T/C [16]: 96.6%
- viability, T/C [17]: 72.9%
- viability, T/C [18]: 1.67%
- viability, T/C [19]: 92.7%
- viability, T/C [20]: 84.3%
- viability, T/C [21]: 89.3%
- viability, T/C [22]: 77.9%
- viability, T/C [23]: 71.8%
- viability, T/C [24]: 2.11%
- viability, T/C [25]: 103%
- viability, T/C [26]: 102%
- viability, T/C [27]: 73.9%
- viability, T/C [28]: 74.2%
- viability, T/C [29]: 64%
- viability, T/C [30]: 1.77%
- viability, T/C [31]: 134%
- viability, T/C [32]: 99.5%
- viability, T/C [33]: 90.1%
- viability, T/C [34]: 73.8%
- viability, T/C [35]: 53.3%
- viability, T/C [36]: 2.11%
